In patent publication US20230406840A1, “N-(2-(3-CYANO-2-AZABICYCLO[3.1.0]HEXAN-2-YL)-2-OXOETHYL)QUINOLINE-4-CARBOXAMIDES” (AstraZeneca AB, priority 2022, published 2023):

Legend:
[1] = molecular target: human dipeptidylpeptidase 7 (hDPP7) (Homo sapiens (Human), UniProt Q9UHL4); assay: hDPP7 inhibition assay; type: biochemical; settings: highest compound concentration 10 μM; n = 1
Method: Compounds were tested in a biochemical inhibition assay using human dipeptidylpeptidase 7 (hDPP7) enzyme (BPS Bioscience, #80070) and the substrate Ala-Pro-amino-methylcoumarin (BPS Bioscience, #80305) at 10 μM FAC. The enzymatic reactions were conducted in duplicate at rt for 20 min in 50 μL assay buffer (10 mM Tris-HCl, pH 7.4, 10 mM MgCl2, 1 mM MnCl2). Compound solutions (in DMSO) at 10 CR, 3-fold dilution series were prepared in assay buffer ten-fold higher than the final concentration, and 5 μL of the dilution was added to a 50 μL reaction so that the highest compound concentration was 10 μM FAC and the concentration of DMSO was 1% in all wells. The plates were read on a PHERAstarPLUS (BMG) using kinetic mode with excitation 340 nm and emission 460 nm. Data were analyzed in Graph Pad Prism. Raw data signals were normalized using 1% DMSO as 0% control and no enzyme as 100% inhibitor control.

FAP Human Plasma = FAP Human Plasma (Homo sapiens (Human), UniProt Q12884); assay: FAP plasma inhibition assay, human plasma; type: biochemical; settings: human plasma dilution 1:40, Ala-Pro-AMC 75 μM; n = 1
FAP Human Plasma, sequence (Q12884 24-760 limits assumed): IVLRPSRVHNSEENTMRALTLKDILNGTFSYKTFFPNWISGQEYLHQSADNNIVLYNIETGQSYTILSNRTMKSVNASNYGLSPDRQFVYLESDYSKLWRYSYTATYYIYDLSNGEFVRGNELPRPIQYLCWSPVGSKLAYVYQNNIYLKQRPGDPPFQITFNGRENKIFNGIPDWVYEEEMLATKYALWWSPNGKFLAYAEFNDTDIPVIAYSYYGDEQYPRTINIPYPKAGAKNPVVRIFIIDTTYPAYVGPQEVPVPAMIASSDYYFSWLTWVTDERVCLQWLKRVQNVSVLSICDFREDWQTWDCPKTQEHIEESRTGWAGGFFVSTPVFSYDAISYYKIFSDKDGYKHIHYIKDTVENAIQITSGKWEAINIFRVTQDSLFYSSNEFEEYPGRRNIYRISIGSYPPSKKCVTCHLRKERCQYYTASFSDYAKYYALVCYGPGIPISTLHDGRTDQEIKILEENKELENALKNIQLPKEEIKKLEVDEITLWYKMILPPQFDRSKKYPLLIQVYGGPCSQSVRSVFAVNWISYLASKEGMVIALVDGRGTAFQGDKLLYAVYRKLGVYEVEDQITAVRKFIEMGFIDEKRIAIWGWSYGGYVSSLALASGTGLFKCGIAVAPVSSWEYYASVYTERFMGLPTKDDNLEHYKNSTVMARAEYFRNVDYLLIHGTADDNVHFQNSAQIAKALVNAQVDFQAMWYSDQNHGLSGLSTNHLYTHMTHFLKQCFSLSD
Method: (§1) This assay was adapted from the method described in Example 53 for detection of FAP target engagement enzyme activity in plasma. Plasma (anticoagulant K2EDTA) was used as the enzyme source: Human plasma (Pooled from AZ Biobank) and Mouse plasma (AZ AST Biobank). 384-Well black fluotrack PS plates (Greiner 781076) were used. 20 μL diluted plasma (Human plasma dilution 1:40, Mouse plasma dilution 1:67) in buffer (PBS, 0.1% BSA) was added to 0.6 μL compounds (in DMSO). Compounds were tested using 10 CR, 3-fold dilution series from 500 nM FAC. Two replicates for each assay point were run on the same plate. A fluorescence blank read was taken before substrate addition. Substrate, Ala-Pro-AMC (ARI-3144) stock solution (20 mM in DMSO) was diluted in buffer (PBS, 0.1% BSA) to 150 μM concentration and 20 μL added giving 75 μM FAC. Plates were incubated for 40 min at rt in the dark. The plates were read on a Beckman Paradigm® reader with excitation 360 nm and emission 465 nm. Data were analyzed in Excel (IDBS XLfit Add-In) using a one site dose response model (4-parameter logistic fit). […] Raw data signals were normalized using 1.5% DMSO in diluted plasma as 0% control and 1.5% DMSO in buffer (no plasma) as 100% inhibitor control.

[2] = molecular target: human dipeptidylpeptidase 8 (hDPP8) (Homo sapiens (Human), UniProt Q6V1X1); assay: hDPP8 inhibition assay; type: biochemical; settings: single concentration 10 μM; n = 1
human dipeptidylpeptidase 8 (hDPP8), sequence (Q6V1X1 whole entry): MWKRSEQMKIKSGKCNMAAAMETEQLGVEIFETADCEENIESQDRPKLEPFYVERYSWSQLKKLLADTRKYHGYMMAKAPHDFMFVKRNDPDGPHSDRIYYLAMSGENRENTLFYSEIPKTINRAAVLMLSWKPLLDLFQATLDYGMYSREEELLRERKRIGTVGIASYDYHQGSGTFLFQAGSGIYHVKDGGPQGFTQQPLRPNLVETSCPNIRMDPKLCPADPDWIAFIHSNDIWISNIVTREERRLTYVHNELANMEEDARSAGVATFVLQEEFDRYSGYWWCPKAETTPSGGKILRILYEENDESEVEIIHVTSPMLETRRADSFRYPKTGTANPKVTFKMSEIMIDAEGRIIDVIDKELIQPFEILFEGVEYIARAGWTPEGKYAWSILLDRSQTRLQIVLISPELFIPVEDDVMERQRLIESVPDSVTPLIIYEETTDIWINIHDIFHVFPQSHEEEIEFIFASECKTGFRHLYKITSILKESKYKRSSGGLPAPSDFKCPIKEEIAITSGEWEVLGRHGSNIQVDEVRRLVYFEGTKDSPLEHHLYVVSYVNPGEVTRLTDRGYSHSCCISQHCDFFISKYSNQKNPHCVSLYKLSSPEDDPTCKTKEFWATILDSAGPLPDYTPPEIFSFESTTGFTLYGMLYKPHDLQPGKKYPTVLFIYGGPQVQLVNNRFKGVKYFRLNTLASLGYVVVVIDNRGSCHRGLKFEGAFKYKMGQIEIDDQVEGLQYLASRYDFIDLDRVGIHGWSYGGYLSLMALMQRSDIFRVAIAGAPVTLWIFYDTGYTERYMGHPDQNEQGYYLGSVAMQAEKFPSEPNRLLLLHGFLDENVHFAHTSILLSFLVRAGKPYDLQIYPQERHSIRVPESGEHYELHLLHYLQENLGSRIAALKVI
Method: Compounds were tested in a biochemical inhibition assay using human dipeptidylpeptidase 8 (hDPP8) enzyme (BPS Bioscience, #80800) and the substrate Gly-Pro-amino-methylcoumarin (Enzo #BML-P189-0005) at 10 μM FAC. The enzymatic reactions were conducted in duplicate at rt for 20 min in 50 μL assay buffer (50 mM Tris, pH 7.5, 0.1% BSA). Compound solutions (in DMSO), were prepared in assay buffer ten-fold higher than the final concentration, and 5 μL of the dilution was added to a 50 μL reaction so that the compound concentration was 10 μM FAC and the concentration of DMSO was 1% in all wells. The plates were read on a PHERAstarPLUS (BMG) using kinetic mode with excitation 340 nm and emission 460 nm. Data were analyzed in Graph Pad Prism. Raw data signals were normalized using 1% DMSO as 0% control and no enzyme as 100% inhibitor control.

[3] = molecular target: human dipeptidylpeptidase 9 (hDPP9) (Homo sapiens (Human), UniProt Q86TI2); assay: hDPP9 inhibition assay; type: biochemical; settings: highest compound concentration 10 μM; n = 1
human dipeptidylpeptidase 9 (hDPP9), sequence (Q86TI2 whole entry): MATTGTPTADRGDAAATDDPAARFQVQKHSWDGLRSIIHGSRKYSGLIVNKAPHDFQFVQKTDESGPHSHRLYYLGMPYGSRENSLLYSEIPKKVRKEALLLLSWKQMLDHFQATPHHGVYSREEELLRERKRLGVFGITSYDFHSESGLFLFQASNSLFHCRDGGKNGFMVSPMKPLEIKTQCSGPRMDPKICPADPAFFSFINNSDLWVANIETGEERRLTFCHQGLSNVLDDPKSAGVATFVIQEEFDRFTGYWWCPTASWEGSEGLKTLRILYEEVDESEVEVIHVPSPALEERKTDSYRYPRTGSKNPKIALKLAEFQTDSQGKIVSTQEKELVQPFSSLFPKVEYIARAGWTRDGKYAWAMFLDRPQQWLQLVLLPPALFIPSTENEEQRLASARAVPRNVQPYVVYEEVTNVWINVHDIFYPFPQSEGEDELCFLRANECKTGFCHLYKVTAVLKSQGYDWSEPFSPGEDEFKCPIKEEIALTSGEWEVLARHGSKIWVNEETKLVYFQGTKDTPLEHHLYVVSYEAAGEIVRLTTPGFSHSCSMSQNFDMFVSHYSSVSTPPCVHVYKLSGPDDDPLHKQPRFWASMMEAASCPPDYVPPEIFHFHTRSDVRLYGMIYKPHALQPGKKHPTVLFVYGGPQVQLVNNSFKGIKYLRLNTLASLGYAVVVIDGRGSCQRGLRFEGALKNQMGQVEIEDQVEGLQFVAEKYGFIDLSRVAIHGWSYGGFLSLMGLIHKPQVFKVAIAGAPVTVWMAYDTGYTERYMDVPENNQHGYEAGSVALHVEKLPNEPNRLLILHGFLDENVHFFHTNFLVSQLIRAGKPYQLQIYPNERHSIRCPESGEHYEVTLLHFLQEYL
Method: Compounds were tested in a biochemical inhibition assay using human dipeptidylpeptidase 9 (hDPP9) enzyme (R&D, #5419-SE-010) and the substrate Gly-Pro-amino-methylcoumarin (Enzo #BML-P189-0005) at 10 μM FAC. The enzymatic reactions were conducted in duplicate at rt for 30 min in 50 μL assay buffer (50 mM Tris, pH 7.5, 0.1% BSA). Compound solutions (in DMSO) at 10 CR, 3-fold dilution series were prepared in assay buffer ten-fold higher than the final concentration, and 5 μL of the dilution was added to a 50 μL reaction so that the highest compound concentration was 10 μM FAC and the concentration of DMSO was 1% in all wells. The plates were read on a PHERAstarPLUS (BMG) using kinetic mode with excitation 340 nm and emission 460 nm. Data were analyzed in Graph Pad Prism. […] Raw data signals were normalized using 1% DMSO as 0% control and no enzyme as 100% inhibitor control.

[4] = Metabolic stability in human liver microsomes (HLM); type: in vitro ADME
Method: Metabolic stability in HLM was measured as described in J Comput Aided Mol Des 2015, 29, 795.

FAP Mouse Plasma = FAP Mouse Plasma (Mus musculus (Mouse), UniProt P97321); assay: FAP plasma inhibition assay, mouse plasma; type: biochemical; settings: mouse plasma dilution 1:67, Ala-Pro-AMC 75 μM; n = 1
FAP Mouse Plasma, sequence (P97321 24-761 limits assumed): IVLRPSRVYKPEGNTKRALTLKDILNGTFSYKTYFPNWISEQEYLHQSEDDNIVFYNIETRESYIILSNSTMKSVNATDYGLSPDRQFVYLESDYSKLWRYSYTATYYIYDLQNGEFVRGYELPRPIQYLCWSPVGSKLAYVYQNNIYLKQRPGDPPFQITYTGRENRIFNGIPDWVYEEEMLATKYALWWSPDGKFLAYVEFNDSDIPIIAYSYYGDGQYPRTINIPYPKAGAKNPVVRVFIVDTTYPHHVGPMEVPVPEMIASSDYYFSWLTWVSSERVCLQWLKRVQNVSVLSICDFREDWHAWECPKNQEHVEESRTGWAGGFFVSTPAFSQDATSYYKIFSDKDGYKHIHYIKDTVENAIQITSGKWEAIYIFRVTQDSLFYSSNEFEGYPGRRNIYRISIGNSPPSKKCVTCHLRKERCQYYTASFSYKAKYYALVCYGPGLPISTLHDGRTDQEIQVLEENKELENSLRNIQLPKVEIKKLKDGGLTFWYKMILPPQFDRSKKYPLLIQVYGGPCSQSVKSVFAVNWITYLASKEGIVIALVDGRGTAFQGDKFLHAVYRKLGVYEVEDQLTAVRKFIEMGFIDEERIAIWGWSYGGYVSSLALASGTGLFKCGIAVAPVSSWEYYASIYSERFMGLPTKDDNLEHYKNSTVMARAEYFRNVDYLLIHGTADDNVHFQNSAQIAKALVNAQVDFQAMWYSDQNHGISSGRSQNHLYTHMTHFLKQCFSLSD
Method: as §1

hFAP (M39-A757) = hFAP (M39-A757) (Homo sapiens (Human), UniProt Q12884)
hFAP (M39-A757), sequence (Q12884 39-757): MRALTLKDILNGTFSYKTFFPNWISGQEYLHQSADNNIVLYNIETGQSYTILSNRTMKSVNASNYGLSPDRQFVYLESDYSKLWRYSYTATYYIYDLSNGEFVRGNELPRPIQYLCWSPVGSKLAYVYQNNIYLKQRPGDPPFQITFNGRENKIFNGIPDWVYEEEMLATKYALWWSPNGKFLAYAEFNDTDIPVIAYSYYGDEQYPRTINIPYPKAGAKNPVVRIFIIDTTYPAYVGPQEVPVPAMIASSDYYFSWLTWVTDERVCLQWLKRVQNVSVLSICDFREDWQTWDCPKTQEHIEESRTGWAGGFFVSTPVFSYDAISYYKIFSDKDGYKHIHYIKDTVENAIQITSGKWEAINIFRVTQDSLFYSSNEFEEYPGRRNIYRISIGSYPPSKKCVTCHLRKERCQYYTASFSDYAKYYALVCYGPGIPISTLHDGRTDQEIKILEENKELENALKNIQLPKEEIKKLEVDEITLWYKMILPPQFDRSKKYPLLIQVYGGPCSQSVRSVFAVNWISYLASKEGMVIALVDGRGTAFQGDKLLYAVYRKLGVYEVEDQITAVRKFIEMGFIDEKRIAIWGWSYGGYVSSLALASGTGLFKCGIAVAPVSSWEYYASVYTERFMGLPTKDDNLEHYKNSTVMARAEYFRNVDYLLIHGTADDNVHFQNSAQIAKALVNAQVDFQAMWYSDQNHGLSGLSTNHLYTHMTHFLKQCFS
Method: Compounds were tested in a direct binding assay using 8K surface plasmon resonance biosensor (GE Healthcare) at 20° C. Immobilization of hFAP (M39-A757) on a CMD200M sensor chip (Xantec) was performed using standard amine coupling procedure in immobilization buffer (10 mM HEPES, 150 mM NaCl, 0.05% Tween20, pH 7.4). The surface was washed with 10 mM NaOH, 1M NaCl before being activated with EDC/NHS (GE Healthcare), followed by immobilization of hFAP (in 10 mM Acetate pH 5.0). Finally, the surface was deactivated by ethanolamine. Immobilization levels of hFAP were around 4000-6000 RU. The reference spot was treated as described, omitting the injection of hFAP. Compound concentration series were injected over the immobilized protein in increasing concentrations (2-500 nM) using single cycle kinetics in running buffer (20 mM TRIS, 150 mM NaCl, 0.05% Tween20, 1% DMSO, pH 7.4). Interaction models were fitted globally to the experimental traces, enabling determination of kon, koff and Kd.

IC50 [1]	IC50 (FAP Human Plasma)	hDPP8 Activity at Compound Concentration 10 μM [2]	IC50 [3]	microsomal CLint [4]	IC50 (FAP Mouse Plasma)	Kd (hFAP (M39-A757))	Compound
> 10 nM	1.6 nM	Not Active	> 10 nM	< 3.2 µL/min/mg	0.73 nM	–	Cc1ccc2c(C(=O)NCC(=O)N3[C@H](C#N)C[C@@H]4C[C@@H]43)ccnc2c1 [Example 20, N-(2-((1S,3S,5S)-3-Cyano-2-azabicyclo[3.1.0]hexan-2-yl)-2-oxoethyl)-7-methylquinoline-4-carboxamide]
–	4.1 nM	–	–	< 3 µL/min/mg	2.8 nM	5.5 nM	N#C[C@@H]1C[C@@H]2C[C@@H]2N1C(=O)CNC(=O)c1ccnc2cc(C3(C#N)CC3)ccc12 [Example 40, N-(2-((1S,3S,5S)-3-Cyano-2-azabicyclo[3.1.0]hexan-2-yl)-2-oxoethyl)-7-(1-cyanocyclopropyl)quinoline-4-carboxamide]
